Activity calls are given as the source filed them. No cut-off for these calls is given here.
Assays:
[1] = target: Sodium-dependent noradrenaline transporter (Homo sapiens, UniProt P23975); assay: biochemical
Description: Inhibition of [3H]nisoxetine reuptake at human NET expressed in HEK293 cells

[2] = target: Sodium-dependent serotonin transporter (Homo sapiens, UniProt P31645); assay: biochemical
Description: Inhibition of [3H]citalopram uptake at human 5HTT expressed in HEK293 cells

[3] = target: T1, Histamine H1 receptor (Homo sapiens, UniProt P35367); assay: Inhibition of histamine H1 receptor
[4] = target: T2, Sodium-dependent dopamine transporter (Homo sapiens, UniProt Q01959)
Description: (§1) Inhibition of [3H]dopamine reuptake at human DAT expressed in HEK293 cells

[5] = Inhibition of sodium channel site 2
[6] = target: Cytochrome P450 3A4 (Homo sapiens, UniProt P08684); assay: Inhibition of CYP3A4; type: ADME
[7] = target: Cytochrome P450 2C9 (Homo sapiens, UniProt P11712); assay: Inhibition of CYP2C9; type: ADME
[8] = target: Norepinephrine transporter (Rattus norvegicus, UniProt Q9WTR4); assay: Inhibition of rat NET expressed in HEK293 cells; type: cell-based
[9] = tested on: Caco-2; assay: Permeability from apical to basolateral side of human Caco-2 cell membrane at 10 uM; type: ADME, cell-based; settings: caco-2, 10 µM
[10] = tested on: MDCK; assay: Permeability from apical to basolateral side of P-gp expressing MDCK cell membrane at 10 uM; type: ADME, cell-based, Canis lupus familiaris; settings: dog
[11] = target: Cytochrome P450 2C19 (Homo sapiens, UniProt P33261); assay: Inhibition of CYP2C19; type: ADME
[12] = Inhibition of calcium channel L type at diltiazem site
[13] = Metabolic stability in human liver microsomes; type: ADME, Microsome
[14] = target: Voltage-gated inwardly rectifying potassium channel KCNH2 (Homo sapiens, UniProt Q12809); assay: Displacement of [3H]dofetilide from human ERG
[15] = Metabolic stability in human hepatocytes; type: ADME, cell-based, Liver, Hepatocyte
[16] = target: T1, Histamine H1 receptor; assay: Inhibition of histamine H1 receptor at 10 uM
[17] = target: Cytochrome P450 2D6 (Homo sapiens, UniProt P10635); assay: Inhibition of CYP2D6; type: ADME
[18] = target: Sodium-dependent serotonin transporter (Rattus norvegicus, UniProt P31652); assay: Inhibition of rat 5HTT expressed in HEK293 cells; type: cell-based
[19] = tested on: Caco-2; assay: Permeability from basolateral to apical side of human Caco-2 cell membrane at 10 uM; type: ADME, cell-based; settings: caco-2, 10 µM
[20] = tested on: Rattus norvegicus; assay: Increase in noradrenaline level in prefrontal cortex interstitial fluid of rat at 10 mg/kg, sc; type: functional; settings: route subcutaneous
[21] = target: T3, Cytochrome P450 1A2 (Homo sapiens, UniProt P05177); assay: Inhibition of CYP1A2; type: ADME
T3 sequence (P05177 whole entry): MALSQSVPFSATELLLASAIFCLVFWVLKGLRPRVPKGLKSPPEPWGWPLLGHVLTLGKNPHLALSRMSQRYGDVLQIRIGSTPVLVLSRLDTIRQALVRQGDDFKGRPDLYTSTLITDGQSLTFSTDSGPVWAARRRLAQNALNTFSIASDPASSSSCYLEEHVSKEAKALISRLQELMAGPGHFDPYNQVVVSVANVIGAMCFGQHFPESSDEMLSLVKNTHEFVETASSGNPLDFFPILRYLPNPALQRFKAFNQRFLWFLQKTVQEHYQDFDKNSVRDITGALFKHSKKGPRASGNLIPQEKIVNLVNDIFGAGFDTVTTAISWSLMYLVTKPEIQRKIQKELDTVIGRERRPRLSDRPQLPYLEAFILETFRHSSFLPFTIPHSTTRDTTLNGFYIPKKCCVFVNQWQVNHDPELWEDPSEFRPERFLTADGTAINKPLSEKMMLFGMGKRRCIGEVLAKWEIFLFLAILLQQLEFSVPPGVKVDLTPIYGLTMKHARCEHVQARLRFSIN

[22] = tested on: Rattus norvegicus; assay: Increase in 5-hydroxytryptamine level in prefrontal cortex interstitial fluid of rat at 10 mg/kg, sc; type: functional; settings: route subcutaneous
[23] = tested on: MDCK; assay: Permeability from basolateral to apical side of P-gp expressing MDCK cell membrane at 10 uM; type: ADME, cell-based, Canis lupus familiaris; settings: dog
[24] = target: T1, Histamine H1 receptor
[25] = Partition coefficient, log D at pH 7.4; type: physicochemical; settings: octanol/water
[26] = pKa, dissociation constant of the compound; type: physicochemical
[27] = target: T2, Sodium-dependent dopamine transporter; settings: hek293
Description: as §1

T2 sequence (Q01959 whole entry): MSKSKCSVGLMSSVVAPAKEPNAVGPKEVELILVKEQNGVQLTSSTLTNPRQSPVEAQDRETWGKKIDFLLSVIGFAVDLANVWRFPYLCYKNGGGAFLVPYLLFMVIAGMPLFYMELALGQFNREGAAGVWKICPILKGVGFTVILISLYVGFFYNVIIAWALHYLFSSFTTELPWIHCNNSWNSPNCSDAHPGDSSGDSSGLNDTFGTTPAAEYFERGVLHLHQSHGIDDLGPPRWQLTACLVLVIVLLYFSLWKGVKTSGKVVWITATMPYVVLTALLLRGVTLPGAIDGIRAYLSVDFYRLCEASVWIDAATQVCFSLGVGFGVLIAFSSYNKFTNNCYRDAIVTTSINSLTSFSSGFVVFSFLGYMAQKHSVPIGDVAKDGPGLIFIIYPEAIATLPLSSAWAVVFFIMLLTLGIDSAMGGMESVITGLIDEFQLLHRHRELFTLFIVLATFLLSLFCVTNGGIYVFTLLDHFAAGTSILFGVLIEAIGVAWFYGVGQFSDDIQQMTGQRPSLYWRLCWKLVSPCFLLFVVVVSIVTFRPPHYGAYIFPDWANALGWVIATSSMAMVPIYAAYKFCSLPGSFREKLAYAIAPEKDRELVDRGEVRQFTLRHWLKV
Sequence of Sodium-dependent serotonin transporter (Homo sapiens, UniProt P31645) (P31645 whole entry): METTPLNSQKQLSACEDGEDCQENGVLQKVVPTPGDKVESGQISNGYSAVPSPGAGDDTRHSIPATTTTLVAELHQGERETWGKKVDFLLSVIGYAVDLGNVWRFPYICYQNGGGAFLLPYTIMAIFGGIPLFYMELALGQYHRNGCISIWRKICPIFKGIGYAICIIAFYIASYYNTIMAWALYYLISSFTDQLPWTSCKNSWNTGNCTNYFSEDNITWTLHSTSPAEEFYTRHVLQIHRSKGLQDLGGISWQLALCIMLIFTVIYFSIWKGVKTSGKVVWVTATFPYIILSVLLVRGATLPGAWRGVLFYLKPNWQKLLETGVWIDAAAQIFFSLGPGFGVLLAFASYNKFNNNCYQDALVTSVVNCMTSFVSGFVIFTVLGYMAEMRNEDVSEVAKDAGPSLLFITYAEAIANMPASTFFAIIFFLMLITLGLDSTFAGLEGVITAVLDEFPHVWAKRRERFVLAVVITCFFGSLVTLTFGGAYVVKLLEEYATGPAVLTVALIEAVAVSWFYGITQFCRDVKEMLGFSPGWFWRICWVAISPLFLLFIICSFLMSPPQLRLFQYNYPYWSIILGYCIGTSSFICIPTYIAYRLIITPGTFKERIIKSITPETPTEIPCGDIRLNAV
T1 sequence (P35367 whole entry): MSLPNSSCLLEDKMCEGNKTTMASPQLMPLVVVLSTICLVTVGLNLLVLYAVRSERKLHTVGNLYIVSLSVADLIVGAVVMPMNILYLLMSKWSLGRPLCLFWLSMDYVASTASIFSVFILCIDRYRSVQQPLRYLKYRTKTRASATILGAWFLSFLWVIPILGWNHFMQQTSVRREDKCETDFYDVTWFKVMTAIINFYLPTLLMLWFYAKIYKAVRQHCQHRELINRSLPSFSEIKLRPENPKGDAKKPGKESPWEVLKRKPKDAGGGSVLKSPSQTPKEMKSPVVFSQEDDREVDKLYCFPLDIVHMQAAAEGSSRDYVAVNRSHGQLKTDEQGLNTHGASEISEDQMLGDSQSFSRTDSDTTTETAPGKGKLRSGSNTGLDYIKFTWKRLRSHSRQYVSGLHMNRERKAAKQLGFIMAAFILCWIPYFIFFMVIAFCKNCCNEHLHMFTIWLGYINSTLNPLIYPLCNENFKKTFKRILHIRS
Sequence of Sodium-dependent noradrenaline transporter (P23975 whole entry): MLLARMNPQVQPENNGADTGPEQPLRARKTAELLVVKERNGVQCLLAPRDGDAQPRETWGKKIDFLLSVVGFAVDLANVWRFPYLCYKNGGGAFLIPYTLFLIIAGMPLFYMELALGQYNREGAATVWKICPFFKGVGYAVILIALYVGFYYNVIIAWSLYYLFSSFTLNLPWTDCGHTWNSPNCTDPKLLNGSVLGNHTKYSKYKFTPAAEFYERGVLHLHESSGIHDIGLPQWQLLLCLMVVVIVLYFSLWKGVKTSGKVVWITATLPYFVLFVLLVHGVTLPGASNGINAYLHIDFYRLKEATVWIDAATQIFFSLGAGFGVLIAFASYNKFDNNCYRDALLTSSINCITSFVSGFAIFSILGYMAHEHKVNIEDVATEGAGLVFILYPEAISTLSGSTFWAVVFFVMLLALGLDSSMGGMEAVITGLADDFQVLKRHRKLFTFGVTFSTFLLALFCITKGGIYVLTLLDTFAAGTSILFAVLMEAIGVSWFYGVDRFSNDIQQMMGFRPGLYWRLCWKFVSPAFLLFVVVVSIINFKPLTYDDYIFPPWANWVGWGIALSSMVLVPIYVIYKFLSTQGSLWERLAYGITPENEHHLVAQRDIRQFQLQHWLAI
Sequence of Sodium-dependent serotonin transporter (Rattus norvegicus, UniProt P31652) (P31652 whole entry): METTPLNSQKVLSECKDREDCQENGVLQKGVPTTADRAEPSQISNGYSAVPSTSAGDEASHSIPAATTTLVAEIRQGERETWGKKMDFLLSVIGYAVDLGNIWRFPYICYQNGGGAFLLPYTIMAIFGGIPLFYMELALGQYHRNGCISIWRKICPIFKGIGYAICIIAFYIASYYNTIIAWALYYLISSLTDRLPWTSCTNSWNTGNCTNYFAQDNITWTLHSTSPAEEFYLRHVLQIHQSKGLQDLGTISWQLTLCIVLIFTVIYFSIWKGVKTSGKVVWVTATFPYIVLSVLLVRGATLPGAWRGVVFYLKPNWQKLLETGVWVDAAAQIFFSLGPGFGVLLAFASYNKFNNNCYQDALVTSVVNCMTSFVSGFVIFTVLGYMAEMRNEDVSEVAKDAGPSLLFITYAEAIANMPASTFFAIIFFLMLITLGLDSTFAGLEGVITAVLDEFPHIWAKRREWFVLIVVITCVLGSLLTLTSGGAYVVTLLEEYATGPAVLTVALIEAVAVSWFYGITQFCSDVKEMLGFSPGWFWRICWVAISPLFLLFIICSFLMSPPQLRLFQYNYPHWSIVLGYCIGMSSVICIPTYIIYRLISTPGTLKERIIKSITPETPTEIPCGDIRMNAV
Sequence of Cytochrome P450 2C9 (P11712 whole entry): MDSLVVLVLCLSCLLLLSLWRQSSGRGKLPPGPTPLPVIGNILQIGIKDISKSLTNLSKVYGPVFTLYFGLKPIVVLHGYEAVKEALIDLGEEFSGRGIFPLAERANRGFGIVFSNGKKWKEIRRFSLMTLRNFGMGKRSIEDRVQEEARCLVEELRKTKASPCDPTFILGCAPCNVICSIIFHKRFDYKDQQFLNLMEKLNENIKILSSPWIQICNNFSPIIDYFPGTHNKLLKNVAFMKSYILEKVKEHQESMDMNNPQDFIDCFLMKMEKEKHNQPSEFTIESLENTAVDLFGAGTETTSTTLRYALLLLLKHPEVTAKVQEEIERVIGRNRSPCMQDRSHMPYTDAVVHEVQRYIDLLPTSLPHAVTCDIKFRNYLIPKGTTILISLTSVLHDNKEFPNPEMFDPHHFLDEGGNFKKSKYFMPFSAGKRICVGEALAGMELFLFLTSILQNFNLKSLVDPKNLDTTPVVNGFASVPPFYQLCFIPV
Sequence of Norepinephrine transporter (Q9WTR4 whole entry): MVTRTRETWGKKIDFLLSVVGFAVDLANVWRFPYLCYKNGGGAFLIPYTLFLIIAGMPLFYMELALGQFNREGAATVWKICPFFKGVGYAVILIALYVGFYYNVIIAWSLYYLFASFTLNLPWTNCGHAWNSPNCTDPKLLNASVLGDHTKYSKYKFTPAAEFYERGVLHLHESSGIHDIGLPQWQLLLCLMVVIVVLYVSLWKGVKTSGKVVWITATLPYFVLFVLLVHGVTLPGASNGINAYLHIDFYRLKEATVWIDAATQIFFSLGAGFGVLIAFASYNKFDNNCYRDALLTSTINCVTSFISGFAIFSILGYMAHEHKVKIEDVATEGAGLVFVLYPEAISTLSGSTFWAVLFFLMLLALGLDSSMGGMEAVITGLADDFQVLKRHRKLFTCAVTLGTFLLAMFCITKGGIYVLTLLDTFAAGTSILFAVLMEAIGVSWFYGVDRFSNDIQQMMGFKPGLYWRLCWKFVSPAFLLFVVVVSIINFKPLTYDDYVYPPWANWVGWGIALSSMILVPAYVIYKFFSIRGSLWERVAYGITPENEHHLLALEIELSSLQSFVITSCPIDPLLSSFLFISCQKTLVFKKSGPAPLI
Sequence of Cytochrome P450 2D6 (P10635 whole entry): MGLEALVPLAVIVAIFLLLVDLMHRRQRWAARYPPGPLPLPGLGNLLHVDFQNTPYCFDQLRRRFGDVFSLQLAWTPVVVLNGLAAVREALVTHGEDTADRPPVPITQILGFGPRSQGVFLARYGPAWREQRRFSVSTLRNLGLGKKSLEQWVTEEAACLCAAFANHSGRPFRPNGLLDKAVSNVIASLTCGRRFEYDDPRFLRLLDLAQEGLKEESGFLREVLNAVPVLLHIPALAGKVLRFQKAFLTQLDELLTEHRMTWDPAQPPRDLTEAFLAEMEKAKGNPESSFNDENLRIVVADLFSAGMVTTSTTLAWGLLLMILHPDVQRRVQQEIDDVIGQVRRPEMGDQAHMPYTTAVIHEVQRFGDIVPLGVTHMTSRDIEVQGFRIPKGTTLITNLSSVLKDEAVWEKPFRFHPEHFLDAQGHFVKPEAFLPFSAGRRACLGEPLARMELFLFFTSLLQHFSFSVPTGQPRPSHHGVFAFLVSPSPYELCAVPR

SMILES: COc1cc(C#N)ccc1O[C@@H](c1ccccc1)[C@@H]1CNCCO1
- Ki [1]: 210 nM
- Ki [2]: 110 nM

SMILES: Fc1ccc(O[C@@H](c2ccccc2)[C@@H]2CNCCO2)c(Cl)c1
- Activity [3]: inactive
- Ki [4]: 1170 nM

SMILES: COc1cc(Cl)ccc1O[C@@H](c1ccccc1)[C@@H]1CNCCO1
- Ki [5]: 1200 nM
- IC50 [6]: > 29000 nM
- IC50 [7]: > 29000 nM
- Ki [8]: 6 nM
- Papp [9]: 18 10^-6/cm
- Papp [10]: 22 10^-6/cm
- IC50 [11]: > 29000 nM
- Ki [12]: 2000 nM
- half-life [13]: > 2 h
- Ki [14]: 3300 nM
- half-life [15]: 3.1 h
- inhibition [16]: < 20%
- IC50 [17]: > 29000 nM
- Ki [18]: 59 nM
- Papp [19]: 16 10^-6/cm
- Activity [20]: 170%
- IC50 [21]: > 29000 nM
- Activity [22]: 160%
- Ki [4]: 1570 nM
- Papp [23]: 35 10^-6/cm

SMILES: Cc1cc(F)ccc1O[C@H](c1ccccc1)[C@H]1CNCCO1
- Ki [24]: 10 nM
- Ki [1]: 860 nM
- Ki [4]: 950 nM
- Ki [2]: 34 nM

SMILES: COc1cc(Cl)ccc1OC(c1ccccc1)C1CNCCO1 (racemic; anti)
- Ki [4]: 2200 nM

SMILES: COc1cc(Cl)ccc1OC(c1ccccc1)C1CNCCO1 (racemic; syn)
- logD [25]: 1.9
- pKa [26]: 7.7
- Ki [4]: 5050 nM

SMILES: COc1cc(Cl)ccc1O[C@@H](c1ccc(F)cc1)[C@@H]1CNCCO1
- Ki [1]: 29 nM
- Ki [2]: 62 nM

SMILES: CCOc1c(Cl)cccc1OC(c1ccccc1)C1CNCCO1 (racemic; anti)
- Ki [1]: 1490 nM
- Ki [4]: > 10000 nM
- Ki [2]: 340 nM

SMILES: COc1cc(Cl)ccc1O[C@@H](c1cccc(F)c1)[C@@H]1CNCCO1
- Ki [1]: 9 nM
- Ki [4]: 10800 nM
- Ki [2]: 58 nM

SMILES: c1ccc([C@@H](Oc2cccc3c2OCC3)[C@H]2CNCCO2)cc1
- Ki [24]: 10 nM
- Ki [1]: 350 nM
- Ki [4]: 5750 nM
- Ki [2]: 20 nM

SMILES: COc1cc(Cl)ccc1O[C@@H](c1cccc(C)c1)[C@@H]1CNCCO1
- Ki [1]: 16 nM
- Ki [2]: 69 nM

SMILES: COc1cc(C(F)(F)F)ccc1O[C@@H](c1ccccc1)[C@@H]1CNCCO1
- Ki [1]: 160 nM
- Ki [2]: 41 nM

SMILES: Fc1cccc(O[C@@H](c2ccccc2)[C@@H]2CNCCO2)c1F
- Activity [3]: inactive
- Ki [1]: 10 nM
- Ki [4]: 2600 nM
- Ki [2]: 3390 nM

SMILES: COc1cc(Cl)ccc1O[C@H](c1ccccc1)[C@H]1CNCCO1
- Ki [24]: 26 nM
- Ki [4]: 1790 nM

SMILES: COc1cc(Cl)ccc1O[C@@H](c1ccccc1C)[C@@H]1CNCCO1
- Ki [1]: 84 nM
- Ki [2]: 70 nM

SMILES: COc1ccc(O[C@@H](c2ccccc2)[C@@H]2CNCCO2)c(Cl)c1
- Ki [1]: 28 nM
- Ki [4]: 1090 nM
- Ki [2]: 96 nM

SMILES: COc1cc(F)ccc1O[C@@H](c1ccccc1)[C@@H]1CNCCO1
- Activity [3]: inactive
- Ki [1]: 6 nM
- Ki [4]: 3080 nM
- Ki [2]: 740 nM

SMILES: CCOc1cc(Cl)ccc1OC(c1ccccc1)C1CNCCO1 (racemic; syn)
- Ki [1]: 15 nM
- Ki [4]: 1540 nM
- Ki [2]: 60 nM

SMILES: COc1cc(Cl)ccc1O[C@@H](c1ccc(C)cc1)[C@@H]1CNCCO1
- Ki [1]: 180 nM
- Ki [4]: 1650 nM
- Ki [2]: 88 nM

SMILES: CCOc1cc(Cl)ccc1OC(c1ccccc1)C1CNCCO1 (racemic; anti)
- Ki [1]: 390 nM
- Ki [4]: 1670 nM
- Ki [2]: 220 nM

SMILES: Cc1cc(F)ccc1O[C@@H](c1ccccc1)[C@@H]1CNCCO1
- Activity [3]: inactive
- Ki [1]: 18 nM
- Ki [4]: 1250 nM
- Ki [2]: 185 nM

SMILES: Clc1cccc(O[C@@H](c2ccccc2)[C@@H]2CNCCO2)c1Cl
- Ki [1]: 17 nM
- Ki [4]: 420 nM
- Ki [2]: 100 nM

SMILES: COc1cc(Br)ccc1O[C@@H](c1ccccc1)[C@@H]1CNCCO1
- Ki [2]: 30 nM

SMILES: COc1cc(F)ccc1O[C@H](c1ccccc1)[C@H]1CNCCO1
- Ki [24]: 10 nM
- Ki [1]: 610 nM
- Ki [2]: 22 nM

SMILES: c1ccc([C@H](Oc2cccc3c2OCC3)[C@@H]2CNCCO2)cc1
- Activity [3]: inactive
- Ki [1]: 12 nM
- Ki [2]: 1800 nM

SMILES: CCOc1c(Cl)cccc1OC(c1ccccc1)C1CNCCO1 (racemic; syn)
- Ki [27]: > 10000 nM
- Ki [1]: 275 nM
- Ki [2]: 240 nM

SMILES: Fc1cccc(O[C@H](c2ccccc2)[C@H]2CNCCO2)c1F
- Ki [24]: 10 nM
- Ki [1]: 130 nM
- Ki [4]: 380 nM
- Ki [2]: 12 nM

SMILES: COc1cc(Cl)ccc1O[C@@H](c1ccccc1F)[C@@H]1CNCCO1
- Ki [1]: 22 nM
- Ki [2]: 70 nM

SMILES: Fc1ccc(O[C@H](c2ccccc2)[C@H]2CNCCO2)c(Cl)c1
- Ki [24]: 10 nM
- Ki [4]: 760 nM

Source: ChEMBL document CHEMBL1144811, “Design and synthesis of morpholine derivatives. SAR for dual serotonin & noradrenaline reuptake inhibition” (Bioorg Med Chem Lett, 2008)
